Laboratory results from US5723576A, “Thrombin inhibitors, the preparation thereof and the use thereof for therapeutical, prophylactic and diagnostic applications” (Development Biotechnological Processes S.N.C., priority 1993, dated 1998).
pKi: −log10 of the molar value. Like-named read-outs stand apart in the source and are kept apart here. Square brackets hold non-standard residues; d marks the D form. Peptide text beside a SMILES is read from it. 2Nal = N[C@@H](Cc1ccc2ccccc2c1)C(=O)O; hPhe = N[C@@H](CCc1ccccc1)C(=O)O; Cha = N[C@@H](CC1CCCCC1)C(=O)O; Chg = N[C@H](C(=O)O)C1CCCCC1; Aib = CC(C)(N)C(=O)O; βAla = NCCC(=O)O

Key:
human a-thrombin = target: T1, human a-thrombin (Homo sapiens, UniProt P00734); test: In vitro resistance of the peptides to enzyme hydrolysis by thrombin; assay type: in vitro ADME; settings: Tris/HCl buffer pH 7.8, 37° C.
T1 construct: human a-thrombin
Experimental: (§1) The resistance of the compounds of the present invention versus plasmatic proteases was evaluated in vitro in two groups of tests. In the first one, the resistance to proteolysis of thrombin itself was tested incubating the claimed compounds in the presence of thrombin and analysing the mixture at different times. In the second one, the claimed compounds were incubated in plasma of healthy volunteers and, after filtration of the plasma proteins, the supernatants were analyzed by HPLC and capillary electrophoresis.
(§2) In vitro determination of the peptide resistance to enzyme hydrolysis by thrombin.
(§3) 97.2 nmol of hirunorm-I (286 μg), hirunorm-II (285 μg), hirunorm-III (293 μg), were incubated separately with 0.972 nmol of human a-thrombin (35 μg, 3110 Units NIH/mg) in 800 μL of 0.05M Tris/HCl buffer, 0.1M NaCl at pH-7.8 and a temperature of 37° C. 50 μL Aliquots were diluted with 200 μL of 100 mN H3 PO4 and analyzed at pre-set times by capillary electrophoresis on a […] silica Waters capillary, using a Waters Quanta 4000 apparatus fitted with an UV detection at 214 nm. The analyses were carried out at a constant voltage of 18 KV, using a 100 mN phosphoric acid buffer for 25 min. The eluted peaks were collected and analyzed by Fab mass spectrometry.
(§4) ^.sctn. The factors tt and tp are the halving times (min) o
(§5) the inhibitor concentrations in the presence of equimolar amounts of
(§6) thrombin, respectively both alone and in human plasma.

[1] = In vitro resistance of the peptides to hydrolysis by plasma proteases; assay type: in vitro ADME; settings: human plasma from healthy donors, 37° C.; read-out: τp: halving time of the inhibitor concentration in human plasma
Experimental: as §1
In vitro determination of the peptides resistance to hydrolysis by plasma proteases.
[…] of hirunorm-I […], hirunorm-II (569 μg), hirunorm-III (585 μg), were separately incubated with 1600 μL of human plasma from heal thy donors at 37° C. for different times. 50 μL aliquots were added with 200 μL of 100 mN H3 PO4. The supernatants were analyzed at pre-set times by HPLC on a Vydac C18 0.46×25 cm column with a straight acetonitrile gradient containing 0.1% (v/v) of trifluoroacetic acid (phase B) against 0.1% (v/v) aqueous trifluoroacetic acid (phase A), from 5 to 70% in B in 35 min at a flow rate of 1 mL/min, with detection at 210 nm. The eluted peaks were collected and analyzed by capillary electrophoresis on a […]×60 cm fused silica Waters capillary, fitted with a UV detector at 214 nm. The analyses were carried out at a constant voltage of 18 KV, using a buffer 100 mN acid phosphoric for 25 min. The eluted peaks were then analyzed by means of Fab mass spectrometry.
as §4, §5, §6

thrombin [2] = target: T2, thrombin (Homo sapiens, UniProt P00734); test: Inhibition of thrombin-mediated hydrolysis of Chromozym TH (Ki); assay type: biochemical; settings: read-out: Ki: hydrolysis inhibition constant of a chromogenic substrate
Experimental: Moreover, the efficacy of the products of the present invention was also evaluated determining the inhibition constants Ki versus thrombin, using chromogenic substrates.
The inhibition of the hydrolysis, mediated by thrombin, of Chromozym TH by the peptides of the present invention was evaluated according to the literature (Stone, S. R., Hofsteenge, J., Biochemistry, 25, 4622, (1986).
°The hydrolysis inhibition constants of a chromogenic substrate ar

human α-thrombin = system: T3, human α-thrombin; test: In vitro resistance of the peptides to enzyme hydrolysis by thrombin; assay type: in vitro ADME; settings: isolated enzyme thrombin; human a-thrombin, Tris/HCl buffer pH 7.8, 37° C.; read-out: τt: halving time of the inhibitor concentration in the presence of thrombin alone
T3 construct: human a-thrombin
Experimental: as §1, §2, §3, §4, §5, §6

thrombin [3] = target: T2, thrombin; settings: non covalent 1:1 complex; read-out: Ki of hirudin binding to thrombin; cited from earlier work

| Compound | τt: halving time of the inhibitor concentration in the presence of thrombin alone (human a-thrombin) [min] | half-life at 1.21 µM [1] [h] | pKi (thrombin [2]) | half-life at 121.5 µM (human α-thrombin) [h] | pKi (thrombin [3]) |
| --- | --- | --- | --- | --- | --- |
| CC[C@H](C)[C@H](N)C(=O)N[C@@H](CCCNC(=N)N)C(=O)N[C@@H](Cc1ccccc1)C(=O)N[C@H](C(=O)N[C@@H](CC(=O)O)C(=O)N[C@H](C)C(=O)NCC(=O)NCCC(=O)N1CCC[C@H]1C(=O)N[C@@H](CCC(=O)O)C(=O)N[C@@H](CO)C(=O)N[C@@H](Cc1c[nH]cn1)C(=O)N[C@@H](CCc1ccccc1)C(=O)NCC(=O)NCC(=O)N[C@@H](CC(=O)O)C(=O)N[C@@H](Cc1ccc(O)cc1)C(=O)N[C@@H](CCC(=O)O)C(=O)N[C@@H](CCC(=O)O)C(=O)N[C@H](C(=O)N1CCC[C@H]1C(=O)NC(C)(C)C(=O)NC(C)(C)C(=O)N[C@@H](Cc1ccc(OP(=O)(O)O)cc1)C(=O)N[C@@H](CC1CCCCC1)C(=O)N[C@H](CCC(=O)O)C(=O)O)[C@@H](C)CC)[C@@H](C)O [Hirunorm-III] (HELM PEPTIDE1{I.R.F.T.D.[dA].G.[bAla].P.E.S.H.[O=C([C@H](CCc1ccccc1)N[*:1])[*:2]].G.G.D.Y.E.E.I.P.[Aib].[Aib].[O=C([C@H](Cc1ccc(OP(=O)(O)O)cc1)N[*:1])[*:2]].[Cha].[dE]}$$$$V2.0) | > 480 | 8 | 9.00 | – | – |
| CC[C@H](C)[C@H](N)C(=O)N[C@@H](CCCNC(=N)N)C(=O)N[C@@H](Cc1ccccc1)C(=O)N[C@H](C(=O)N[C@@H](CC(=O)O)C(=O)N[C@H](C)C(=O)NCC(=O)NCCC(=O)N1CCC[C@H]1C(=O)N[C@@H](CCC(=O)O)C(=O)N[C@@H](CO)C(=O)N[C@@H](Cc1c[nH]cn1)C(=O)N[C@@H](CCc1ccccc1)C(=O)NCC(=O)NCC(=O)N[C@@H](CC(=O)O)C(=O)N[C@@H](Cc1ccc(O)cc1)C(=O)N[C@@H](CCC(=O)O)C(=O)N[C@@H](CCC(=O)O)C(=O)N[C@H](C(=O)N1CCC[C@H]1C(=O)NC(C)(C)C(=O)NC(C)(C)C(=O)N[C@@H](Cc1ccc(O)cc1)C(=O)N[C@@H](CC1CCCCC1)C(=O)N[C@H](CCC(=O)O)C(=O)O)[C@@H](C)CC)[C@@H](C)O [Hirunorm-II] (HELM PEPTIDE1{I.R.F.T.D.[dA].G.[bAla].P.E.S.H.[O=C([C@H](CCc1ccccc1)N[*:1])[*:2]].G.G.D.Y.E.E.I.P.[Aib].[Aib].Y.[Cha].[dE]}$$$$V2.0) | > 480 | 8 | 8.59 | – | – |
| CC[C@H](C)[C@H](NC(=O)[C@H](CCC(=O)O)NC(=O)[C@H](CCC(=O)O)NC(=O)[C@H](Cc1ccc(O)cc1)NC(=O)[C@H](CC(=O)O)NC(=O)CNC(=O)CNC(=O)[C@H](CCc1ccccc1)NC(=O)[C@H](Cc1c[nH]cn1)NC(=O)[C@H](CO)NC(=O)[C@H](CCC(=O)O)NC(=O)[C@@H]1CCCN1C(=O)CCNC(=O)CNC(=O)[C@@H](C)NC(=O)[C@H](CC(=O)O)NC(=O)[C@@H](NC(=O)[C@H](Cc1ccc2ccccc2c1)NC(=O)[C@H](CCCNC(=N)N)NC(=O)[C@@H](N)C1CCCCC1)[C@@H](C)O)C(=O)N1CCC[C@H]1C(=O)NC(C)(C)C(=O)NC(C)(C)C(=O)N[C@@H](Cc1ccc(O)cc1)C(=O)N[C@@H](CC1CCCCC1)C(=O)N[C@H](CCC(=O)O)C(=O)O [Hirunorm-IV] (H-[Chg]R[2Nal]TD[dA]G[βAla]PESH[hPhe]GGDYEEIP[Aib][Aib]Y[Cha][dE]-OH) | – | – | 8.59 | – | – |
| CC[C@H](C)[C@H](N)C(=O)N[C@@H](CCCNC(=N)N)C(=O)N[C@@H](Cc1ccc(O)cc1)C(=O)N[C@H](C(=O)N[C@@H](CC(=O)O)C(=O)N[C@H](C)C(=O)NCCC(=O)NCCC(=O)N1CCC[C@H]1C(=O)N[C@@H](CCC(=O)O)C(=O)N[C@@H](CC(N)=O)C(=O)N[C@@H](Cc1c[nH]cn1)C(=O)N[C@@H](CC(N)=O)C(=O)N[C@@H](CC(N)=O)C(=O)NCC(=O)N[C@@H](CC(=O)O)C(=O)N[C@@H](Cc1ccccc1)C(=O)N[C@@H](CCC(=O)O)C(=O)N[C@@H](CCC(=O)O)C(=O)N[C@H](C(=O)N1CCC[C@H]1C(=O)NC(C)(C)C(=O)NC(C)(C)C(=O)N[C@@H](Cc1ccc(O)cc1)C(=O)N[C@@H](CC(C)C)C(=O)N[C@@H](CCC(=O)O)C(=O)O)[C@@H](C)CC)[C@@H](C)O [Hirunorm-I] (HELM PEPTIDE1{I.R.Y.T.D.[dA].[bAla].[bAla].P.E.N.H.N.N.G.D.F.E.E.I.P.[Aib].[Aib].Y.L.E}$$$$V2.0) | – | 5 | 7.01 | > 8 | – |
| CC[C@H](C)[C@H](NC(=O)[C@H](CCC(=O)O)NC(=O)[C@H](CCC(=O)O)NC(=O)[C@H](Cc1ccc(O)cc1)NC(=O)[C@H](CC(=O)O)NC(=O)CNC(=O)CNC(=O)[C@H](CCc1ccccc1)NC(=O)[C@H](Cc1c[nH]cn1)NC(=O)[C@H](CO)NC(=O)[C@H](CCC(=O)O)NC(=O)[C@@H]1CCCN1C(=O)CCNC(=O)CNC(=O)[C@@H](C)NC(=O)[C@H](CC(=O)O)NC(=O)[C@@H](NC(=O)[C@H](Cc1ccc2ccccc2c1)NC(=O)[C@@H](NC(=O)[C@@H](N)C1CCCCC1)C(C)C)[C@@H](C)O)C(=O)N1CCC[C@H]1C(=O)NC(C)(C)C(=O)NC(C)(C)C(=O)N[C@@H](Cc1ccc(O)cc1)C(=O)N[C@@H](CC1CCCCC1)C(=O)N[C@H](CCC(=O)O)C(=O)O [Hirunorm-V] (H-[Chg]V[2Nal]TD[dA]G[βAla]PESH[hPhe]GGDYEEIP[Aib][Aib]Y[Cha][dE]-OH) | – | – | 9.00 | – | – |
| Hirudin | – | – | – | – | 10.20 |
